Laboratory results from patent US20060035844A1, “Preventive or remedy for diseases caused by hyperglycemia” (priority 2002, published 2006).

What was measured:
[1] = biological target: T1, rat SGLT1 (Rattus norvegicus, UniProt P53790); experiment: Assay for inhibitory effects on rat SGLT1 activity (uptake of methyl-α-D-glucopyranoside in CrS1 cells); type: cell-based; details: CHO-K1 cells stably expressing rat SGLT1 (CrS1), 1 mM α-MG, 37° C., 1 hour; read-out: IC50 value, inhibition of uptake of methyl-α-D-glucopyranoside
T1 construct: expressed in transfected cells
T1 sequence (P53790 1-665): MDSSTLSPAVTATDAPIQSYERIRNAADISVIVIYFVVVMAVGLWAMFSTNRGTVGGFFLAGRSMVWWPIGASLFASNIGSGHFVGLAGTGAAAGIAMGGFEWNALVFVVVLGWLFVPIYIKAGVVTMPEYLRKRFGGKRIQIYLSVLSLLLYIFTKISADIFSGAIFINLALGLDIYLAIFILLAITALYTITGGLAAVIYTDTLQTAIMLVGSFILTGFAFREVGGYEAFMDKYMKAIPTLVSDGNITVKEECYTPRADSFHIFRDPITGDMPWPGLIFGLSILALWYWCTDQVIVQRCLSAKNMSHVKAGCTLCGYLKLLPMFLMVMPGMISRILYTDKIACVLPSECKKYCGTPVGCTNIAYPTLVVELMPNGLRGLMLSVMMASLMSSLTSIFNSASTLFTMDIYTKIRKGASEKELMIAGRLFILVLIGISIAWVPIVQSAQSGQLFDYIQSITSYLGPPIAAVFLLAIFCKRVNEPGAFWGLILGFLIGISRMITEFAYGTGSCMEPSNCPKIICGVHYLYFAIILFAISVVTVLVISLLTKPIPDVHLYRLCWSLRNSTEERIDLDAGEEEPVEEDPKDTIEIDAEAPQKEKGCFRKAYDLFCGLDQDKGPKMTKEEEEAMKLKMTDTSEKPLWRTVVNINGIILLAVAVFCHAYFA
Experimental: A test compound was dissolved in dimethyl sulfoxide, and then appropriately diluted with distilled water. The test compound solution was added to the uptake buffer containing 1 mM α-MG, and designated as a measurement buffer. For the control group, the measurement buffer without any test compound was prepared. […] After repeating the same treatment, the pre-treatment buffer was removed. To each well was added 75 μL of the measurement buffer or the basal uptake buffer was added and incubated at 37° C. for 1 hour. After removing the measurement buffer, cells were washed twice with 180 μL per well of the washing buffer (the basal uptake buffer containing 10 mM non-labeled α-MG). The cells were solubilized by 75 μL per well of 0.2 mol/L sodium hydroxide. The cell lysates were transferred into PicoPlates (Packard), and then added 150 μL of MicroScint-40 (Packard) and mixed. Radioactivity was measured by means of micro-scintillation counter TopCount (Packard).

[2] = system: male Zucker fa/fa rats; experiment: Effects after mixed-carbohydrate loading with or without sucrose (plasma glucose AUC 0-3 h); type: in vivo, rat; details: Zucker fatty fa/fa rats, oral; Example 1 0.5 mg/kg, Example 2 0.3 mg/kg, acarbose 5 mg/kg, miglitol 5 mg/kg, phlorizin 100 mg/kg; 1.6 g glucose/kg load
From the text: Next, in order to investigate whether effects caused by fructose ingestion are present, the present inventors have performed the following test using Zucker fatty fa/fa rats, model animals of type-2 diabetes. […] In the fructose-containing diet group, mixed carbohydrate (starch: sucrose: lactose=6:3:1), which corresponds approximately to carbohydrates in regular diets, was loaded. (e.g., see the following Reference 35). On the other hand, in the fructose-free diet group, mixed carbohydrate substituted the corresponding amount of starch for the amount of glucose contained within sucrose, was loaded, because sucrose is a disaccharide and is digested to glucose and fructose in the gastrointestinal tract. Then, comparison study of each diet was performed.
The FIG. 1 is a graph showing hypoglycemic effects of each drug caused by fructose ingestion.
Effects of SGLT1 Inhibitors, an SGLT Inhibitor and α-glucosidase Inhibitors After Mixed-Carbohydrate Containing Sucrose Loading
Immediately after the compound administration, mixed-carbohydrate with sucrose (starch:sucrose:lactose=6:3:1) or without sucrose (starch:lactose=7.5:1) was loaded at a dose of 1.6 g glucose/kg. The blood was collected immediately before and after the administration with the time course (0, 0.5, 1, 2, 3 hours). The plasma was collected to quantify the plasma glucose concentration. The area under the curve of plasma glucose concentration from 0 to 3 hours was calculated by the trapezoidal method. Statistical analysis was T test between existence and nonexistence of sucrose in mixed-carbohydrate solution on each compound.

[3] = system: male Wistar rats; experiment: Effects of an SGLT1 inhibitor on absorption of fructose (fructose tolerance test, residual fructose in the gastrointestinal tract); type: in vivo, rat
Experimental: Effects of an SGLT1 Inhibitor on Absorption of Fructose
Immediately after the administration, 0.2 g/kg of fructose was loaded. After 30 minutes, rats were sacrificed with exsanguination under ether anesthesia and then the contents of stomach and small intestine were collected with 10 mL ice-cold saline. Fructose concentration was measured by fructose assay kit (D-glucose/D-Fructose; Roche diagnostics) and calculated residual fructose (% of dose) in the gastrointestinal tract. Statistical analysis between control and treated groups are calculated using T test.

Row | Compound | IC50 [1] [nM] | Reduction of plasma glucose concentration after sucrose-containing diet compared with sucrose-free diet (in words) [2] | Residual fructose (% of dose) in the gastrointestinal tract ([3]; 0.3 mg/kg oral, 0.2 g/kg fructose load, after 30 minutes, stomach and small intestine contents, control 11.8 ± 2.1) [%] | Inhibitory effect on absorbing fructose (in words) ([3]; fructose tolerance test, residual fructose in the gastrointestinal tract)
1 | Cc1cc(O)cc(O[C@@H]2O[C@H](CO)[C@@H](O)[C@H](O)[C@H]2O)c1Cc1ccc(NC(=O)NCc2cccnc2)cc1 [Example 1, 5-Hydroxy-3-methyl-2-{4-[3-(3-pyridylmethyl)ureido]benzyl}-phenyl β-D-glucopyranoside] | 139 | significantly reduced plasma glucose concentration | – | –
2 | Cc1cc(OCCNC(=N)N)ccc1Cc1c(O[C@@H]2O[C@H](CO)[C@@H](O)[C@H](O)[C@H]2O)n[nH]c1C(C)C [Example 2, 3-(β-D-Glucopyranosyloxy)-4-{[4-(2-guanidinoethoxy)-2-methylphenyl]methyl}-5-isopropyl-1H-pyrazole] | 38.1 | significantly reduced plasma glucose concentration | 12.2 ± 2.6 | substantially show no inhibitory effect on absorbing fructose
3 | O=C(CCc1ccc(O)cc1)c1c(O)cc(O)cc1O[C@@H]1O[C@H](CO)[C@@H](O)[C@H](O)[C@H]1O [Phlorizin, reference compound] | – | did not reduce plasma glucose concentration | – | –
4 | OCCN1C[C@H](O)[C@@H](O)[C@H](O)[C@H]1CO [miglitol, reference compound] | – | did not reduce plasma glucose concentration | – | –
